Measured values from ChEMBL document CHEMBL3272155, “Synthesis of beta-spiro[pyrrolidinoindolines], their binding to the glycine receptor, and in vivo biological acitivity” (J Med Chem, 1977).

Columns and labels:
[1] = target: T1, Glycine receptor subunit alpha-1 (Rattus norvegicus, UniProt P07727); test: Displacement of [3H]Strychnine from glycine receptor in rat brain synaptic membranes; type: cell membranes
T1 sequence (P07727 whole entry): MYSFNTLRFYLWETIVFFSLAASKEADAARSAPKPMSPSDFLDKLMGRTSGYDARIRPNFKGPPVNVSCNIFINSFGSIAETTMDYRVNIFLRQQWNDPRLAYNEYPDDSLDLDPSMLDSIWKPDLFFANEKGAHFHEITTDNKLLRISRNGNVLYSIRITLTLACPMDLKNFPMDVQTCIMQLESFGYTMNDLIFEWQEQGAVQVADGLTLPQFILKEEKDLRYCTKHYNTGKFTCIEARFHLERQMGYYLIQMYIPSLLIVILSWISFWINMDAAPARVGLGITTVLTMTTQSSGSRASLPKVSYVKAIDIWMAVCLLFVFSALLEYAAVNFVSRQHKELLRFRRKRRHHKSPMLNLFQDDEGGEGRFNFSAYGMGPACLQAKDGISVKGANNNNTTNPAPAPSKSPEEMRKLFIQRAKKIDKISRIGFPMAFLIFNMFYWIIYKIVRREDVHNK

Mus musculus [2] = test: Induction of clonic convulsions in ip dosed COBS-CDI mouse measured after 3 hrs; type: functional
Mus musculus [3] = test: Induction of tonic convulsions in ip dosed COBS-CDI mouse measured after 3 hrs; type: functional
[4] = Toxicity in ip dosed COBS-CDI mouse assessed as mortality measured after 3 hrs; type: organism-based; details: in vivo

| Structure (SMILES) | IC50 [1] [µM] | ED50 (Mus musculus [2]) [µmol/kg] | ED50 (Mus musculus [3]) [µmol/kg] | LD50 at 3 h [4] [µmol/kg] |
| --- | --- | --- | --- | --- |
| CC(=O)N1CC2(CCCC2)c2ccccc21 | > 1000 | 1650 | > 7420 | 6880 |
| CC(=O)N1CC2(CCN(C)C2)c2ccccc21 (configuration not stated) | 23.6 | 79.6 | 83.9 | 94.8 |
| CC(=O)N1CC2(CCN(Cc3ccccc3)C2)c2ccccc21.O=C(O)C(=O)O (configuration not stated) | 31 | 252 | > 1010 | 505 |
| C=CCN1CCC2(C1)CN(C(C)=O)c1ccccc12.O=C(O)C(=O)O (configuration not stated) | 67.9 | 300 | 434 | 396 |
| CC(=O)N1CC2(CCNC2)c2ccccc21.O=C(O)C(=O)O (configuration not stated) | 295 | 542 | 746 | 687 |
| CN1CCC2(CNc3ccccc32)C1 (configuration not stated) | 282 | 365 | 412 | 412 |
| CC(=O)N1CCc2ccccc21 | > 1000 | > 2480 | > 2480 | 1400 |
| CC(=O)N1c2ccccc2C(C)(C)C1C (racemic) | > 1000 | < 1970 | > 3940 | 2830 |
